Assay results from patent US12636271B2, “Combination comprising N-acetyl-L-cysteine and its use” (IASOMAI AB, priority 2011, dated 2026).

Key:
[1] = test system: HL60 cells; test: Antioxidant effect against menadione oxidative stimulus, CM-H2DCFDA fluorescence; type: cell-based, human; settings: concentrations as in FIGS. 5-7
Method: The human lymphoblastoid HL60 and the proerythoblastoid K562 cell lines were used, grown at 37° C. in RPMI 1640 medium (Invitrogen, Gibco, Milano, Italy), supplemented with 10% fetal bovine serum, 5 μg/ml penicillin, 5 μg/ml streptomycin, 2 mM glutamine, and routinely subcultured three times a week. Cells were treated either with menadione alone (control), with NAC only, with NAC+Se-methionine (SeMet), with NAC+Mel, or with NAC+SeMet+Mel. In cases of SeMet supplementation, such supplementation was performed two days before experiments, by using a SeMet solution in buffer (concentrations as indicated in description of FIGS. 4-7). In cases of Mel supplementation, such supplementation was performed 20 hours before experiments, by using a solution in ethanol (concentrations as indicated in description of FIGS. 4-7). Ethanol concentration in growth medium was <1.3% and controls only with this solvent were also grown in parallel.
The effect of NAC, Mel, SeMet and of a combination of these substances in protecting the cells against an oxidative stimulus was detected by using the fluorescent probe 5-(and-6)-chloromethyl-2′,7′-dichlorodihydrofluorescein diacetate, acetyl ester (CM-H2DCFDA) (Invitrogen, Molecular Probes). CM-H2DCFDA is a cell-permeant indicator for reactive oxygen species that is not fluorescent until removal of its acetate groups by intracellular esterases, and oxidation within the cell. The increase in hydroperoxides (mainly H2O2) within the cell is thus monitored by increase in fluorescence. […]
Cells were counted, and care was taken to keep the ratio between cells and the fluorescent probe constant. […] Two μ1 of a solution of CM-H2DCFDA in DMSO were then added and the fluorescence intensity read versus time. After the first 200 sec of reading, a proper aliquot of NAC solution in phosphate buffer (concentrations as indicated in description of FIGS. 4-7), and 10 μl of a 0.1 M solution of menadione in ethanol were added, and the fluorescence intensity reading continued. During intensity readings, samples were subjected to continuous mild stirring. […]

[2] = test system: patients suffering from fatigue; test: Fatigue trial, rated intensity before and after treatment; type: in vivo, human; settings: group of 20 patients
Source text: In a method, conducted in a similar manner to that described in the previous Examples 6 and 7, and in accordance with embodiments of this disclosure a medical product comprising NAC, SeMet and Mel in accordance with embodiments was given to a plurality of groups of patients in the treatment of fatigue. The method of treating fatigue comprises administering to a patient in need thereof, a medical product consisting of one or more excipients and active agents consisting of (i) N-acetyl-L-cysteine; (ii) selenium in the form of selenomethionine; and (iii) melatonin and/or physiologically acceptable salts thereof. Fatigue may be related and due to anxiety, and/or to sporadic insomnia or have other independent causes. Fatigue is defined as a state of tiredness that remain despite rest or sleep, and that tend to impair cognitive and/or physical ability and performance.
In a trial the NAC, SeMet and Mel medical product, herein also called NAC-factor 3, was administered to a group of patients in a set-up to compare the effect of placebo, NAC and the medical product consisting of NAC, SeMet and Mel in treatment of fatigue.
(§1) The patients rated their experienced intensity of fatigue before and after being exposed to medication with one of placebo, NAC and the medical product consisting of NAC, SeMet and Mel (in short NACSeMel), respectively. The subjective intensity was rated by the patients using a 5 graded verbal rating scale ranging from None/Ignorable=0, Slight=1, Moderate=2, Great=3, Excruciating=4, where the corresponding numbers 0-4 are used to illustrate the responses in accompanying graphs.
(§2) In studying the results of the rating, the change in rating that the group delivered was expressed as a measure of the group's relative position RP in order to assess whether there was a systematic change in position on the rating scale. The relative position, i.e. the change in rating is negative if the rating indicates less intensity after exposure to treatment compared to before treatment, and positive if the rating indicates higher intensity after exposure to treatment. A range of values for the relative position RP was calculated for a 95% confidence interval CI.

[3] = test system: patients suffering from sporadic insomnia; test: Sporadic insomnia trial, rated intensity before and after treatment; type: in vivo, human; settings: group of 24 patients
[4] = test system: patients suffering from varying kinds of anxiety; test: Anxiety trial, rated pain intensity before and after treatment; type: in vivo, human; settings: n = 20
Source text: In a method in accordance with embodiments of this disclosure a medical product comprising NAC, SeMet and Mel in accordance with embodiments was given to a plurality of groups of patients in the treatment of anxiety. The method of treating an anxiety disorder comprises administering to a patient in need thereof, a medical product consisting of one or more excipients and active agents consisting of (i) N-acetyl-L-cysteine; (ii) selenium in the form of selenomethionine; and (iii) melatonin and/or physiologically acceptable salts thereof.
(§3) In a trial the NAC, SeMet and Mel medical product, herein also called NAC-factor 3, was administered to the groups of patients in a set-up to compare the anxiolytic effect of placebo, NAC and the medical product consisting of NAC, SeMet and Mel in anxiolysis. The groups of patients were ordered according to the following different causes of anxiety: Sporadic anxiety (i.e. healthy patients) (SA), Social phobia (SP), Agoraphobia (AP), Panic disorder (PD), Generalized anxiety disorder (GAD), Obsessive-compulsive disorders (OCD), and Posttraumatic stress disorder (PTSD).
as §1, with “of pain from the anxiety” for “of fatigue”, “subjective pain-intensity” for “subjective intensity”
as §2, with “less pain” for “less”, “higher pain” for “higher”

[5] = test system: patients suffering from obsessive compulsive disorder; test: as above; type: in vivo, human; settings: n = 7
Method: as §3
as §1, with “of pain from the anxiety” for “of fatigue”, “subjective pain-intensity” for “subjective intensity”
as §2, with “less pain” for “less”, “higher pain” for “higher”
(§4) The corresponding treatment design as described above was used with patients rating the pain intensity for specific causes of anxiety, viz. Recurrent sporadic social anxiety, Social Phobia/Agoraphobia, Panic disorder, Generalized anxiety disorder, Obsessive compulsive disorder and Posttraumatic stress disorder. The results are presented in the following Table 3 and in FIG. 11-FIG. 16.

[6] = test system: patients suffering from social phobia/agoraphobia; test: as above; type: in vivo, human; settings: n = 6
Method: as §3
as §1, with “of pain from the anxiety” for “of fatigue”, “subjective pain-intensity” for “subjective intensity”
as §2, with “less pain” for “less”, “higher pain” for “higher”
as §4

[7] = test system: patients suffering from panic disorder; test: as above; type: in vivo, human; settings: n = 7
Method: as §3
as §1, with “of pain from the anxiety” for “of fatigue”, “subjective pain-intensity” for “subjective intensity”
as §2, with “less pain” for “less”, “higher pain” for “higher”
as §4

[8] = test system: patients suffering from recurrent sporadic social anxiety; test: as above; type: in vivo, human; settings: n = 12
Method: as §3
as §1, with “of pain from the anxiety” for “of fatigue”, “subjective pain-intensity” for “subjective intensity”
as §2, with “less pain” for “less”, “higher pain” for “higher”
as §4

[9] = test system: patients suffering from generalized anxiety disorder; test: as above; type: in vivo, human; settings: n = 8
Method: as §3
as §1, with “of pain from the anxiety” for “of fatigue”, “subjective pain-intensity” for “subjective intensity”
as §2, with “less pain” for “less”, “higher pain” for “higher”
as §4

[10] = test system: patients suffering from posttraumatic stress disorder; test: as above; type: in vivo, human; settings: n = 5
Method: as §3
as §1, with “of pain from the anxiety” for “of fatigue”, “subjective pain-intensity” for “subjective intensity”
as §2, with “less pain” for “less”, “higher pain” for “higher”
as §4

[11] = test system: K562 cells; test: Antioxidant effect against menadione oxidative stimulus, CM-H2DCFDA fluorescence; type: cell-based, human; settings: 0.2 mM menadione, 0.4 mM NAC, 0.2 mM SeMet, 2 mM Mel (FIG. 4)
Method: The human lymphoblastoid HL60 and the proerythoblastoid K562 cell lines were used, grown at 37° C. in RPMI 1640 medium (Invitrogen, Gibco, Milano, Italy), supplemented with 10% fetal bovine serum, 5 μg/ml penicillin, 5 μg/ml streptomycin, 2 mM glutamine, and routinely subcultured three times a week. Cells were treated either with menadione alone (control), with NAC only, with NAC+Se-methionine (SeMet), with NAC+Mel, or with NAC+SeMet+Mel. In cases of SeMet supplementation, such supplementation was performed two days before experiments, by using a SeMet solution in buffer (concentrations as indicated in description of FIGS. 4-7). […]
The effect of NAC, Mel, SeMet and of a combination of these substances in protecting the cells against an oxidative stimulus was detected by using the fluorescent probe 5-(and-6)-chloromethyl-2′,7′-dichlorodihydrofluorescein diacetate, acetyl ester (CM-H2DCFDA) (Invitrogen, Molecular Probes). […] The increase in hydroperoxides (mainly H2O2) within the cell is thus monitored by increase in fluorescence. […]
Cells were counted, and care was taken to keep the ratio between cells and the fluorescent probe constant. […] Two μ1 of a solution of CM-H2DCFDA in DMSO were then added and the fluorescence intensity read versus time. […] During intensity readings, samples were subjected to continuous mild stirring. […]

[12] = negative = less intensity after treatment

COc1ccc2[nH]cc(CCNC(C)=O)c2c1 [Mel, melatonin]
oxidative response (slope of DCFDA fluorescence intensity increase) after menadione [1]: unfavorable pro-oxidant effect

CC(=O)N[C@@H](CS)C(=O)O [NAC, N-acetyl-L-cysteine]
number of patients that rated increased level of fatigue [2]: 3 patients
number of patients that rated lower fatigue [2]: 9 patients
number of patients that rated unchanged intensity of fatigue [2]: 8 patients
patients that rated increased level of fatigue [2]: 15%
patients that rated lower fatigue [2]: 45%
patients that rated unchanged intensity of fatigue [2]: 40%
relative position RP [2, 12]: −0.26 (95% CI −0.49 to −0.03)
number of patients that rated lower sporadic insomnia [3]: 15 patients
number of patients that rated unchanged intensity [3]: 9 patients
patients that rated lower sporadic insomnia [3]: 62%
patients that rated unchanged intensity [3]: 38%
relative position RP [3, 12]: −0.37 (95% CI −0.49 to −0.25)
number of patients that rated higher pain intensity after treatment [4]: 5 patients
number of patients that rated lower pain intensity after treatment [4]: 9 patients
patients that rated higher pain intensity after treatment [4]: 25%
patients that rated lower pain intensity after treatment [4]: 40%
patients that rated unchanged level [4]: 35%
oxidative response (slope of DCFDA fluorescence intensity increase) after menadione [1]: relevant reduction in the kinetics of this intensity increase
number of patients that rated higher [5]: 1 patients
number of patients that rated lower [5]: 4 patients
number of patients that rated unchanged level [5]: 2 patients
relative position RP [5]: RP −0.27
number of patients that rated lower [6]: ↓3, ~3 patients
number of patients that rated unchanged level [6]: ↓3, ~3 patients
relative position RP [6]: RP −0.31
number of patients that rated lower [7]: 3 patients
number of patients that rated unchanged level [7]: 4 patients
relative position RP [7]: RP −0.35
number of patients that rated lower [8]: 9 patients
number of patients that rated unchanged level [8]: 2 patients
relative position RP [8]: RP −0.46
number of patients that rated lower [9]: 7 patients
number of patients that rated unchanged level [9]: 1 patients
relative position RP [9]: RP −0.81
number of patients that rated lower [10]: 3 patients
number of patients that rated unchanged level [10]: 2 patients
relative position RP [10]: RP −0.60
oxidative response (slope of DCFDA fluorescence intensity increase) after menadione [11]: relevant reduction in the kinetics of this intensity increase

C[Se]CC[C@H](N)C(=O)O [SeMet, selenomethionine]
oxidative response (slope of DCFDA fluorescence intensity increase) after menadione [1]: unfavorable pro-oxidant effect
